According to patent US20220054541A1, “METHOD FOR TREATING INFLAMMATORY BOWEL DISEASES” (NovMetaPharma Co., Ltd., priority 2020, published 2022):
Entries after “also recorded” stand apart in the source; their conditions may differ.

Assays:
[1] = test system: muscle tissues and intestinal segments; conditions: cited from earlier work
[2] = test system: DSS-induced colitis model mice; assay: DSS-induced colitis model mice (body weight, disease score, survival, colon length, histology); type: in vivo, Male C57BL/6J Jms Slc mice
Method: Male C57BL/6J Jms Slc mice (8-week old) were fed with 4% dextran sulfate sodium (DSS) in water in place of drinking water for 9 days, followed by feeding drinking water for 3 days, inducing colitis in the mice. Mice were divided into three groups: (1) CRP40 group administered orally with CHP monohydrate (40 mg/kg body weight/day); (2) CycloZ40 group administered orally with a combination of CHP monohydrate 40 mg/kg+Zn gluconate 70 mg/kg; and (3) vehicle (control) group fed with drinking water. CHP hydrate and combination of CHP hydrate+Zn gluconate were administered to the animals starting from 3 days prior to the DSS administration and continued for 12 days until the animals were sacrificed. The above amount of the CHP monohydrate and the combination of CHP monohydrate and Zn gluconate were administered daily.
At day 12, the animals were sacrificed and their colon lengths were measured.
The intestinal tissues were fixed, paraffin-embedded, and stained with hematoxylin and eosin.
Histopathological evaluation of colon was scored according to the grading system listed below.

[3] = pKa of CHP hydrate material; type: physicochemical

O=C1N[C@@H](Cc2cnc[nH]2)C(=O)N2CCC[C@@H]12 [CHP, Cyclo(-His-Pro)]
zinc absorption and uptake [1]: enhanced zinc absorption and uptake
protection of intestine ([2]; CHP alone 40 mg/kg/day as monohydrate compared with combination of CHP 40 mg/kg/day and Zn 70 mg/kg as zinc gluconate): greater protection of intestine

O=C1N[C@@H](Cc2cnc[nH]2)C(=O)N2CCC[C@@H]12 [CRP40, CHP monohydrate]
histological scores ([2]; DSS-induced colitis mice, compared with control (vehicle) group): histologically more resistant to intestinal inflammation
histological examination of intestinal tissue (H&E) ([2]; DSS-induced colitis mice, epithelial lining, submucosa thickness, lymphatic infiltration, compared with vehicle group): protected from intestinal tissue damage
survival rate ([2]; DSS-induced colitis mice, experimental period of 14 days, CHP monohydrate 40 mg/kg/day, or plus Zn gluconate 70 mg/kg, about 70% of vehicle group died): survived until the end of the experiment
weight loss (body weight changes) ([2]; DSS-induced colitis mice, oral daily CHP monohydrate 40 mg/kg/day, day 12, compared with CycloZ40 and vehicle groups): the least
disease score (disease activity: weight loss, stool consistency, blood) ([2]; DSS-induced colitis mice, oral daily CHP monohydrate 40 mg/kg/day, day 12, compared with CycloZ40 and vehicle groups, monohydrate): greatly improved; also recorded: the lowest
colon length ([2]; DSS-induced colitis mice, sacrificed at day 12, compared with vehicle and CycloZ40 groups): longest
pKa [3]: ~6.4
